Measured values published in US20230241185A1, “COMPOSITION COMPRISING A DNA-DEGRADING ENZYME FOR USE IN A METHOD FOR THE TREATMENT OF IMMUNOSUPPRESSION AFTER ACUTE TISSUE INJURY” (Klinikum der Universität München, priority 2020, published 2023).
“Also recorded” adds a separate entry of the source.

Columns and labels:
Type in all cases: in vivo, mice
[1] = system: K. pneumoniae; test: Post-stroke intranasal bacterial infection, CFU burden in lung; settings: VX765 vs control; 2×10^5 CFU K. pneumoniae intranasally 12 h after stroke; CFU 14 h later
[2] = system: S. pneumoniae; test: Post-stroke intranasal bacterial infection, CFU burden in trachea; settings: VX765 vs control; 10^6 CFU S. pneumoniae intranasally 12 h after stroke; CFU 14 h later
Excerpt: (§1) Mice were anaesthetized with isoflurane delivered in a mixture of 30% O2 and 70% N2O. An incision was made between the ear and the eye in order to expose the temporal bone. Mice were placed in supine position, and a laser Doppler probe was affixed to the skull above the middle cerebral artery (MCA) territory. The common carotid artery and left external carotid artery were exposed via midline incision and further isolated and ligated. […] Lack of brain ischemia as quantified post-mortem by histological analysis. […]
S. pneumoniae TIGR4, an encapsulated strain of serotype 4, was grown overnight on Columbia blood agar plates (37° C., 5% CO2), single colonies were cultured in Todd-Hewitt broth with 1% yeast extract to mid-logarithmic phase (OD600 nm: 0.35), washed, and diluted in sterile PBS to the desired concentration. […] Serial dilutions of lung and tracheal tissue homogenates were plated onto blood agar plates and CFU were determined after 16 h of incubation.

[3] = system: splenic CD3^+ T cells; test: Splenic T cell counts by FACS after experimental stroke; settings: VX-765 100 mg kg^−1 i.p. 1 h prior to stroke vs vehicle; normalized to sham
Excerpt: Mice were anaesthetized with isoflurane delivered in a mixture of 30% O2 and 70% N2O. An incision was made between the ear and the eye in order to expose the temporal bone. Mice were placed in supine position, and a laser Doppler probe was affixed to the skull above the middle cerebral artery (MCA) territory. The common carotid artery and left external carotid artery were exposed via midline incision and further isolated and ligated. A 2-mm silicon-coated filament (Doccol) was inserted into the internal carotid artery, advanced gently to the MCA until resistance was felt, and occlusion was confirmed by a corresponding decrease in blood flow (i.e., a decrease in the laser Doppler flow signal by 80%. After 60 minutes of occlusion, the animals were re-anesthetized, and the filament was removed. After recovery, the mice were kept in their home cage with ad libitum access to water and food. Sham-operated mice received the same surgical procedure, but the filament was […] in lieu of being advanced to the MCA. Body temperature was maintained at 37° C. throughout surgery in all mice via feedback-controlled heating pad. The overall mortality rate of animals subjected to MCA occlusion was approximately 20%. All animals in the sham group survived the procedure. Exclusion criteria: 1. Insufficient MCA occlusion (a reduction in blood flow to […] of the baseline value). 2. Death during the surgery. 3. Lack of brain ischemia as quantified post-mortem by histological analysis.
Anti-IL1β: Mice received two injections of antagonizing anti-IL-1β in sterile saline (clone: B122, InVivoMab, BioXcell, US), 1 hour prior to and 1 hour after surgery. Anti-IL-1β or the corresponding IgG control (Armenian hamster IgG, InVivoMab, BioXcell, US) was injected i.p. at a dose of 4 mg kg^−1 body weight in a final volume of 200 μl.
Anti-FasL: Mice received two injections of antagonizing anti-FasL in sterile saline (clone: MFL3, InVivoMab, BioXcell, US), 1 hour prior to and 1 hour after surgery. […]

[4] = system: CD45^+ splenocytes; test: CD45+ splenocyte counts by FACS after burn injury; settings: VX-765 100 mg kg^−1 i.p. 1 h prior to burn injury vs vehicle; normalized to sham
Method: (§2) Male C57Bl/6J mice (Charles River, Freiburg, Germany), aged 7-8 weeks, received a 35% total body surface area (TBSA) full thickness scald burn to the back through 10 seconds immersion in 98° C. water under deep anesthesia with 2% isoflurane and analgesia with 0.1 mg kg^−1 buprenorphine. Immediately after burn injury, the mice were resuscitated with 2 ml of lactated Ringer's solution (Baxter, Unterschleißheim, Germany) via i.p. injection as previously described (Hundeshagen et al., 2018; Bohannon et al., 2008; Toliver-Kinsky et al., 2005). Animals in the sham burn group were subjected to identical treatment except for water temperature during immersion being 36 C. Following burn injury or sham burn, mice were singly housed at room temperature (21° C.). […]
(§3) The anti-mouse antibodies listed below (see Table 1) were used for surface marker staining of CD45^+ leukocytes, CD45^+CD11b^+ monocytes (+FasL^+ expression), CD3^+ T cells, CD3^+CD4^+ Thelper cells, CD3^+CD8^+ Tcytotox cells and CD19^+ B cells (for representative gating strategy, see FIG. 10A). […] Flow cytometric data was acquired using a BD FACSverse flow cytometer (BD Biosciences) and analyzed using FlowJo software (Treestar).

[5] = Infarct volumetry after stroke; settings: VX-765 vs control treatment; 18 h after stroke
Excerpt: as §1
Mice were euthanized by overdose of ketamine-xylazine and perfused intracardially with normal saline. […] Infarct area of each section was assessed by ImageJ software (NIH). […] The total infarct volume was determined by integrating measured areas and distances between sections.

[6] = system: splenic CD3^+ T cells; test: Splenic T cell counts by FACS after burn injury; settings: VX-765 100 mg kg^−1 i.p. 1 h prior to burn injury vs vehicle; normalized to sham
Method: as §2, §3

[7] = system: CD45^+ splenocytes; test: CD45+ splenocyte counts (spleen cellularity) by FACS after experimental stroke; settings: VX-765 100 mg kg^−1 i.p. 1 h prior to stroke vs vehicle; normalized to sham
Excerpt: as §1, §3

CCO[C@@H]1OC(=O)C[C@@H]1NC(=O)[C@@H]1CCCN1C(=O)[C@@H](NC(=O)c1ccc(N)c(Cl)c1)C(C)(C)C [VX-765, Belnacasan]
bacterial load (CFU) in lung [1]: reduced post-injury bacterial load comparable to sham-operated group
bacterial load (CFU) in trachea [2]: reduced post-injury bacterial load comparable to sham-operated group
splenic CD3+ T cell counts (survival) [3]: improved T cell survival; also recorded: improved survival after VX-765 treatment compared to control
overall CD45+ splenocyte counts (spleen cellularity) [4]: improved T cell survival and spleen cellularity; also recorded: improved survival after VX-765 treatment compared to control
infarct volume (primary lesion size) [5]: neither genetic nor pharmacological caspase-1 deficiency had a significant effect on the primary lesion size; also recorded: No significant difference in infarct volume between groups
splenic CD3+ T cell counts (survival) [6]: improved T cell survival; also recorded: improved survival after VX-765 treatment compared to control
overall CD45+ splenocyte counts (spleen cellularity) [7]: improved T cell survival and spleen cellularity; also recorded: improved survival after VX-765 treatment compared to control
